Test results published in the NIST ThermoML archive (doi:10.1021/je0502400).
Numbers after ± are expanded uncertainties.

Tests used:
[1] = molar heat capacity at constant pressure; mn = molality of the nth substance listed, in mol/kg; settings: 298.15 K, 101 kPa, Liquid, Flow calorimetry
[2] = mn = molality of the nth substance listed, in mol/kg; settings: 298 K, 101 kPa, Liquid

O=C([O-])CC(=O)[O-].[Na+].[Na+] [sodium malonate] + O
Settings	mass density, [2] [kg/m3]	molar heat capacity at constant pressure, [1] [J/K/mol]
m1 = 0.0102	998.203 ± 0.21	75.19 ± 0.16
m1 = 0.02019	999.271 ± 0.21	75.06 ± 0.16
m1 = 0.04023	1001.44 ± 0.21	74.8 ± 0.16
m1 = 0.05997	1003.61 ± 0.21	74.54 ± 0.16
m1 = 0.09952	1007.82 ± 0.22	74.04 ± 0.16
m1 = 0.2049	1018.85 ± 0.24	72.81 ± 0.16
m1 = 0.3005	1028.55 ± 0.26	71.8 ± 0.15
m1 = 0.4985	1048.21 ± 0.29	69.9 ± 0.15
m1 = 0.7356	1070.79 ± 0.34	68.01 ± 0.15
m1 = 0.9746	1092.13 ± 0.38	66.27 ± 0.14
m1 = 1.481	1134.8 ± 0.47	63.33 ± 0.13
m1 = 1.995	1173.58 ± 0.55	61.03 ± 0.13
m1 = 2.993	1241.78 ± 0.69	–
m1 = 3.991	1296.36 ± 0.81	–

O=C([O-])C(=O)[O-].[Na+].[Na+] [sodium oxalate] + O
Settings	mass density, [2] [kg/m3]	molar heat capacity at constant pressure, [1] [J/K/mol]
m1 = 0.009986	998.164 ± 0.21	75.31 ± 0.16
m1 = 0.01989	999.268 ± 0.21	75.27 ± 0.16
m1 = 0.03998	1001.48 ± 0.21	75.22 ± 0.16
m1 = 0.0603	1003.67 ± 0.21	75.17 ± 0.16
m1 = 0.09999	–	75.08 ± 0.16
m1 = 0.1502	1013.28 ± 0.23	75 ± 0.16
m1 = 0.1996	1018.42 ± 0.23	74.93 ± 0.16
m1 = 0.2494	1023.55 ± 0.24	74.88 ± 0.16

O=C([O-])C(=O)[O-].[K+].[K+] [potassium oxalate] + O
Settings	mass density, [2] [kg/m3]	molar heat capacity at constant pressure, [1] [J/K/mol]
m1 = 0.01029	998.319 ± 0.22	75.17 ± 0.16
m1 = 0.01993	999.506 ± 0.21	75 ± 0.16
m1 = 0.03995	1001.9 ± 0.21	74.67 ± 0.16
m1 = 0.06118	1004.41 ± 0.22	74.34 ± 0.16
m1 = 0.1011	1009.21 ± 0.23	73.71 ± 0.16
m1 = 0.1971	1020.46 ± 0.24	72.27 ± 0.15
m1 = 0.2996	1032.09 ± 0.26	70.86 ± 0.15
m1 = 0.501	1054.2 ± 0.3	68.3 ± 0.15
m1 = 0.7483	1080.17 ± 0.35	65.5 ± 0.14
m1 = 0.9987	1105.27 ± 0.39	63 ± 0.13
m1 = 1.197	1124.39 ± 0.43	61.21 ± 0.13
m1 = 1.396	1142.79 ± 0.47	59.54 ± 0.13
m1 = 1.497	1151.71 ± 0.48	58.76 ± 0.13

O=C([O-])CCC(=O)[O-].[Na+].[Na+] [disodium succinate] + O
Settings	mass density, [2] [kg/m3]	molar heat capacity at constant pressure, [1] [J/K/mol]
m1 = 0.009952	998.141 ± 0.21	75.32 ± 0.16
m1 = 0.02038	999.243 ± 0.21	75.31 ± 0.16
m1 = 0.04187	1001.53 ± 0.21	75.28 ± 0.16
m1 = 0.06054	1003.53 ± 0.21	75.26 ± 0.16
m1 = 0.1003	1007.7 ± 0.22	75.22 ± 0.16
m1 = 0.2003	1018 ± 0.24	75.2 ± 0.16
m1 = 0.3001	1028.05 ± 0.26	75.23 ± 0.16
m1 = 0.5006	1047.46 ± 0.29	75.44 ± 0.16
m1 = 0.7497	1070.41 ± 0.34	75.93 ± 0.16
m1 = 1	1092.29 ± 0.38	76.61 ± 0.16
m1 = 1.494	1132.32 ± 0.47	78.38 ± 0.17
m1 = 1.999	1169.44 ± 0.55	80.61 ± 0.17

[Cl-].[Na+] [sodium chloride] + O
Settings	mass density, m1 = 0.9998 [kg/m3]	mass density, m1 = 1.999 [kg/m3]	mass density, m1 = 3 [kg/m3]	molar heat capacity at constant pressure, m1 = 0.9998 [J/K/mol]	molar heat capacity at constant pressure, m1 = 1.999 [J/K/mol]	molar heat capacity at constant pressure, m1 = 3 [J/K/mol]
[1]	–	–	–	73.34 ± 0.16	72.23 ± 0.15	71.74 ± 0.15
[2]	1036.18 ± 0.15	1072.22 ± 0.18	1105.7 ± 0.22	–	–	–
